Results on 22 substances are retold here after US11105794B2, “In vitro nephrotoxicity screening assay” (Hoffmann-La Roche Inc., priority 2016, dated 2021).

The test system of data set [1] is PTEC-TERT1 cells. Put plainly: EGF assay, supernatant of PTEC-TERT1 cells. The conditions noted are these: for Toxicity grade: from EGF, assay window saline vs toxic reference compound 4-1.
Description: Prior to treatment with oligonucleotides the PTEC-TERT1 were seeded into collagen I-coated 96-well plates (Corning, 356407) at a density of 40 000 and 20 000 cells/well respectively in PTEC medium and grown until confluence.
Oligonucleotides were dissolved in PBS and added to the cell culture at the given concentration, such as 10, 30 or 100 μM. The total volume of each well was 100 μl. PBS served as vehicle control.
When extra cellular markers, like EGF and KIM-1, were analyzed following the oligonucleotide treatment the medium was collected and stored at −20° C. until further analysis. […] The collected medium was stored at −20° C.
For analysis of human EGF, cell supernatants were thawed on ice, diluted 1:2 and 1:10 in sample dilution buffer (BioRad catalog # M60-009RDPD) and analyzed by Luminex®-based ELISA using human EGF beads (Bio-Plex Pro™ Human Cancer Biomarker Panel 2 EGF Set#171BC603M), or followed by analysis using the Bio-Plex® 200 Systems (BioRad) according to the manufacturer's instructions. Data are reported as mean concentrations and standard deviations of triplicate wells.
Data set [2] deals with A549 cells. Put plainly: EGF assay, A549 cells transfected with oligonucleotide.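 Also: values as percent of saline control.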 Type of data set: cell-based, human. The conditions noted are these: A549, 48 hours after transfection. On the procedure: (§1) A549 cells (ATCC CCL-185) were cultivated according to the manufacturer's instructions in A549 medium [F-12K Nut Mix (Gibco, 21127-022), 1% penicillin/streptomycin (Gibco: 15140-122), 10% FBS (Gibco 16000-044)].
(§2) Prior to treatment with oligonucleotides the A549 cells were seeded in 96 well plates at 3′000 cells per well in A549 regular medium and grown until 60% confluence. […]
(§3) A549 were cultivated as described in the “Materials and methods” section. At after at 50-60% confluence the oligonucleotides were transfected into the cells using 0.5 μl Lipofectamin (Invitrogen, 11668-019) in 25 μl OptiMEM® (GIBCO 31985062) and 1 ng or 10 ng oligonucleotide in the same volume OptiMEM. The cells were incubated over night at 37° C. The medium was changed using A459 regular medium+10 ng/ml EGF. 48 hours after transfection the medium was collected for EGF measurements and the cells were harvested for ATP measurements.

Data set [3] concerns A549 cells. The data set can be described thus: Intracellular ATP assay, A549 cells transfected with oligonucleotide.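 Also: ATP as percent of saline control.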 The conditions noted are these: A549, 48 hours after transfection. The format is cell-based, human. On the procedure: as §1, §2
Each sample was tested in triplicate.
as §3

The test system of data set [4] is Primary human hepatocytes. Put plainly: EGF assay, culture media of primary human hepatocytes.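 Also: values as percent of saline vehicle control.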 The conditions noted are these: 10 ng/ml EGF in medium. Type of data set: cell-based. Here is the method: Cryopreserved human hepatocytes were suspended in William's Medium E (WME) without phenol red (Sigma W-1878) supplemented with 10% fetal calf serum, penicillin (100 U/ml), streptomycin (0.1 mg/ml) at a density of approx. 1×10^6 cells/ml and seeded into collagen-coated 96-well plates (Becton Dickinson AG, Allschwil, Switzerland) at a density of 0.4×10^5 cells/well. Cells were pre-cultured for 3 to 4 h allowing for attachment to cell culture plates before start of treatment with oligonucleotides.
Before oligonucleotide treatment the seeding medium was replaced by 90 μl of serum free WME.
The total volume of each well was 100 μl. PBS served as vehicle control.
Human primary hepatocytes were cultivated as described in the “Materials and methods” section with addition of 10 ng/ml of EGF to the medium. At confluence the cells were treated with oligonucleotide as described in the “Materials and methods” section, in concentrations of 10 or 100 μM.
The medium was obtained at day 3, and the EGF level was measured according to the assay described in the “Materials and methods” section.

The mark [5] stands for this setting: PTEC-TERT1, Day 6, 10 μM (Table 4).
Where [6] appears, read: PTEC-TERT1, Day 6, 30 μM (Table 4).
Where [7] appears, read: PTEC-TERT1, Day 6, 100 μM (Table 4).
Setting [8] is: PTEC-TERT1, 6 days, 10 μM oligonucleotide (Table 7).
Where [9] appears, read: PTEC-TERT1, 6 days, 30 μM oligonucleotide (Table 7).

Turning to “TTTacacttgaCCC (TTTACACTTGACCC; chemistry not given here) [Compound 13-1]”, the EGF in data set [1] (setting [5]) amounted to 27 % saline; in data set [1] (setting [6]), 29 % saline; in data set [1] (setting [7]) it was 39 % saline.
For the substance “ACTgcstttcscacstCTG (antisense ACTGCTTTCCACTCTG; LNA gapmer, stereodefined phosphorothioates, chemistry not fully specified) [Compound 8-2]”, the figures for the EGF in data set [1] (setting [8]) and in data set [1] (setting [9]) were 5723 % saline and 25199 % saline, respectively. Further, the Toxicity grade stood at 219 in data set [1] (PTEC-TERT1, 6 days, 10 μM) and 347 in data set [1] (PTEC-TERT1, 6 days, 30 μM).
As to “CATtgcattgtttCCG (CATTGCATTGTTTCCG; chemistry not given here) [Compound 19-1]”, the results for the EGF in data set [1] (setting [5]), in data set [1] (setting [6]) and in data set [1] (setting [7]) were 317 % saline, 310 % saline and 413 % saline, respectively.
The corresponding values for “TTAcacttgacCCA (TTACACTTGACCCA; chemistry not given here) [Compound 12-1]” are 19 % saline, 27 % saline and 71 % saline.
As for “CGTttgtgctcgaTAA (CGTTTGTGCTCGATAA; chemistry not given here) [Compound 16-1]”, the EGF in data set [1] (setting [5]) was determined as 394 % saline; in data set [1] (setting [6]) it was 509 % saline; in data set [1] (setting [7]), 707 % saline.
Consider “ACTgcrtttcrcacrtCTG (antisense ACTGCTTTCCACTCTG; LNA gapmer, stereodefined phosphorothioates, chemistry not fully specified) [Compound 8-3]”, for which the EGF is on record as 869 % saline in data set [1] (setting [8]) and 3416 % saline in data set [1] (setting [9]). For the same substance, the Toxicity grade in data set [1] (PTEC-TERT1, 6 days, 10 μM) amounted to 32; in data set [1] (PTEC-TERT1, 6 days, 30 μM), 46.
Regarding “ACTgctttccactCTG (ACTGCTTTCCACTCTG; chemistry not given here) [Compound 8-1]”, the EGF in data set [2] (1 ng oligonucleotide) is 140 % saline; in data set [2] (10 ng oligonucleotide), 233 % saline; in data set [1] (setting [8]) it was 8412 % saline; in data set [1] (setting [9]), 15126 % saline; in data set [1] (setting [5]), 1153 % saline; in data set [1] (setting [6]) it was 1359 % saline. The same substance gave an EGF in data set [1] (setting [7]) of 1545 % saline. Also, the Toxicity grade in data set [1] (PTEC-TERT1, 6 days, 10 μM) is 323; in data set [1] (PTEC-TERT1, 6 days, 30 μM) it was 208. Further, the results for the ATP in data set [3] (1 ng oligonucleotide) and in data set [3] (10 ng oligonucleotide) were 101 % saline and 58 % saline, respectively.
Take “CAAaggaaacacaCAT (CAAAGGAAACACACAT; chemistry not given here) [Compound 6-1]”: the EGF in data set [1] (setting [5]) amounted to 78 % saline; in data set [1] (setting [6]), 90 % saline; in data set [1] (setting [7]), 118 % saline.
The corresponding values for “ATTgcattgtttcCGT (ATTGCATTGTTTCCGT; chemistry not given here) [Compound 18-1]” are 223 % saline, 203 % saline and 290 % saline.
Regarding “CATtgcattgttTCCG (CATTGCATTGTTTCCG; chemistry not given here) [Compound 19-2]”, the EGF amounted to 370 % saline in data set [1] (setting [5]), 606 % saline in data set [1] (setting [6]) and 770 % saline in data set [1] (setting [7]).
The like results for “GCCtcccagttccTTT (GCCTCCCAGTTCCTTT; chemistry not given here) [Compound 9-1]” were, in that order, 220 % saline, 284 % saline and 1593 % saline.
For “CACattccttgctCTG (CACATTCCTTGCTCTG; chemistry not given here) [Compound 10-1]”, the EGF in data set [4] (day 3, 10 μM) stood at 145 % saline; in data set [4] (day 3, 100 μM), 574 % saline; in data set [1] (setting [8]), 305 % saline; in data set [1] (setting [9]), 1283 % saline; in data set [1] (setting [5]), 73 % saline; in data set [1] (setting [6]) it was 330 % saline. This substance also registered an EGF in data set [1] (setting [7]) of 783 % saline. For the same substance, the Toxicity grade in data set [1] (PTEC-TERT1, 6 days, 10 μM) is recorded as 11; in data set [1] (PTEC-TERT1, 6 days, 30 μM) it was 17.
Regarding “CGTttgtgctcgATA (CGTTTGTGCTCGATA; chemistry not given here) [Compound 17-1]”, the EGF in data set [1] (setting [5]) turned out to be 342 % saline; in data set [1] (setting [6]), 550 % saline; in data set [1] (setting [7]), 693 % saline.
Regarding “CACattrccttrgctrCTrG (antisense CACATTCCTTGCTCTG; LNA gapmer, stereodefined phosphorothioates, chemistry not fully specified) [Compound 10-3]”, the EGF in data set [1] (setting [8]) is 248 % saline; in data set [1] (setting [9]) it was 1740 % saline. Also, the Toxicity grade in data set [1] (PTEC-TERT1, 6 days, 10 μM) is on record as 9; in data set [1] (PTEC-TERT1, 6 days, 30 μM) it was 23.
“CAAatgctgaaacTAT (CAAATGCTGAAACTAT; chemistry not given here) [Compound 7-1]”: the EGF in data set [1] (setting [5]) was 37 % saline; in data set [1] (setting [6]) it was 40 % saline; in data set [1] (setting [7]), 67 % saline.
As for “CACattsccttsgctsCTsG (antisense CACATTCCTTGCTCTG; LNA gapmer, stereodefined phosphorothioates, chemistry not fully specified) [Compound 10-2]”, the EGF in data set [1] (setting [8]) came out at 93 % saline; in data set [1] (setting [9]), 156 % saline. Further, the Toxicity grade in data set [1] (PTEC-TERT1, 6 days, 10 μM) is 3; in data set [1] (PTEC-TERT1, 6 days, 30 μM) it was 1.
With “TAAggcaatcaagGTA (TAAGGCAATCAAGGTA; chemistry not given here) [Compound 5-1]”, the EGF in data set [1] (PTEC-TERT1, Day 3, 11 μM (Table 3)) turned out to be 174 % saline; in data set [1] (PTEC-TERT1, Day 3, 33 μM (Table 3)) it was 222 % saline; in data set [1] (PTEC-TERT1, Day 3, 100 μM (Table 3)), 182 % saline; in data set [1] (PTEC-TERT1, Day 7, 11 μM (Table 3)) it was 158 % saline; in data set [1] (PTEC-TERT1, Day 7, 33 μM (Table 3)), 249 % saline; in data set [1] (PTEC-TERT1, Day 7, 100 μM (Table 3)), 754 % saline. In addition, the EGF in data set [1] (PTEC-TERT1, Day 10, 11 μM (Table 3)) came out at 54 % saline; in data set [1] (PTEC-TERT1, Day 10, 33 μM (Table 3)) it was 210 % saline; in data set [1] (PTEC-TERT1, Day 10, 100 μM (Table 3)) it was 720 % saline.
“CACattscscttsgsctCTG (antisense CACATTCCTTGCTCTG; LNA gapmer, stereodefined phosphorothioates, chemistry not fully specified) [Compound 10-4]”: the EGF is recorded as 60 % saline in data set [1] (setting [8]) and 157 % saline in data set [1] (setting [9]). Further, the Toxicity grade in data set [1] (PTEC-TERT1, 6 days, 10 μM) worked out at 1; in data set [1] (PTEC-TERT1, 6 days, 30 μM), 1.
Consider “CACattrcrcttrgrctCTG (antisense CACATTCCTTGCTCTG; LNA gapmer, stereodefined phosphorothioates, chemistry not fully specified) [Compound 10-5]”, for which the EGF in data set [1] (setting [8]) was 369 % saline; in data set [1] (setting [9]), 1069 % saline. Further, the Toxicity grade is recorded as 13 in data set [1] (PTEC-TERT1, 6 days, 10 μM) and 14 in data set [1] (PTEC-TERT1, 6 days, 30 μM).
Turning to “CTAtgtgttccTGT (CTATGTGTTCCTGT; chemistry not given here) [Compound 15-1]”, the EGF in data set [1] (setting [5]) was determined as 38 % saline; in data set [1] (setting [6]) it was 76 % saline; in data set [1] (setting [7]), 234 % saline.
Turning to “TGCtcaacatcAAG (TGCTCAACATCAAG; chemistry not given here) [Compound 11-1]”, the EGF in data set [4] (day 3, 10 μM) is listed as 184 % saline; in data set [4] (day 3, 100 μM) it was 458 % saline; in data set [1] (setting [5]), 38 % saline; in data set [1] (setting [6]) it was 127 % saline; in data set [1] (setting [7]), 371 % saline.
With “GTCagaaacaaccACC (GTCAGAAACAACCACC; chemistry not given here) [Compound 14-1]”, the EGF came out at 139 % saline in data set [4] (day 3, 10 μM) and 220 % saline in data set [4] (day 3, 100 μM).
